The record followed here is patent publication US8232248B2, “Treatment of rheumatoid arthritis with mammal beta defensins” (Novozymes Adenium Biotech A/S, priority 2008, dated 2012).

For the assay, the system named is TNF production from human peripheral blood mononuclear cells (PBMC). The experiment in a line: TNF production from PBMC stimulated with LPS, LTA, PGN or Pam3CSK4, 24 h, Cytometric Bead Array. Type of assay: cell-based. Particulars: PBMC stimulated with LPS or LTA; Table 13. The method, then: Peripheral blood was drawn from healthy volunteers (with approval from the relevant ethical committee in Denmark). Heparinized blood was diluted 1/1 v/v with RPMI and were subjected to Ficoll density centrifugation within 2 h of drawing. Plasma was collected from the top from individual donors and was kept on ice until it was used at 2% in the culture medium (autologous culture medium). Isolated PBMC were resuspended in autologous culture medium and seeded in 96-well culture plates with 255.000 cells per well in a total of 200 μl. […] The concentrations used for stimulation were optimized on 3 different donors in initial experiments, for LPS two different concentrations were used to be sure to be on a cytokine level that is possible to modulate. In some experiments PBMC were treated with Dexamethason and Indomethacin alone and together with LPS or LTA as a control on downregulation of inflammatory cytokines. The supernatants were collected after incubation at 37° C. for 24 hours, and stored at −80° C. until cytokine measurement. Viability was measured by Alamar Blue (Biosource, DALL 1100) in all experiments and in some cases also by MTS (Promega) according to manufacturer's instruction and was in some experiments also judged by counting of the cells by a Nucleocounter.
Cytokine production in supernatants was measured by flow cytometry with a human inflammation cytometric bead array (CBA) according to manufacturer's instructions (BD) on a FACSarray flow cytometer. The following cytokines were measured: IL-8, IL-1β, IL-10, TNF, IL-12 p70, IL-6. In some experiments, cytokines were measured by ELISA kits from R&D systems (IL-10, TNF-α, IL-1β) according to the manufacturer' instruction.
All experiments were performed at least twice, with representative results shown. The data presented are expressed as mean plus/minus standard deviation (SD). […] Differences were considered significant for p<0.05.
Example 3 was carried out essentially as described in Example 2. […]

`COc1ccc2c(c1)c(CC(=O)O)c(C)n2C(=O)c1ccc(Cl)cc1` [Indomethacin, reference compound]: the “TNF inhibition (positive controls)” value is listed as “only inhibited TNF (Table 13) after stimulation with LTA”.
